Laboratory results: patent US20120309934A1, “INTRACELLUAR TARGETING BIPODAL PEPTIDE BINDER” (priority 2009, published 2012)
Residues, ends and D or L forms follow the SMILES beside them. No end group written: not given here.

Tests used:
Format in all cases: binding
fibronectin ED-B = biological target: T1, fibronectin ED-B (Homo sapiens, UniProt P02751); test: Recombinant phage ELISA specificity to fibronectin ED-B; conditions: 450 nm, 10 proteins
T1 construct: After transformation of pET28b vector carrying fibronectin ED-B into BL21 cells; made in house; host or cells: E. coli BL21 (pET28b)
Procedure: (§1) Specificity of recombinant phages to each protein was carried out using ELISA. Each protein (5 μg/ml) was seeded into wells (50 μl per well) in a 96-well ELISA plate and next day, all wells were washed with 0.1% PBST (Tween-20) three times, and blocked at room temperature for 2 hrs using 2% skim milk. Then, the solution was completely removed and the plate was washed with 0.1% PBST three times. Recombinant phages containing the peptide of the present invention were thoroughly mixed with 2% BSA. Each mixture (100 μl) was divided into wells coated with 10 proteins and kept to stand at 27° C. for 2 hrs. After washing with 0.1% PBST 5 times, HRP-conjugated anti-M13 antibodies (1:1,000 dilution; GE Healthcare) were added to each well and incubated at 27° C. for 1 hr. After washing with 0.1% PBST 5 times, 100 μl TMB was divided into each well to induce colorimetric reaction, followed by stopping the reaction adding 100 μl of 1 M HCl. The absorbance was measured at 450 nm.

HSA = biological target: T2, HSA (Homo sapiens, UniProt P02768); test: Recombinant phage ELISA specificity to HSA; conditions: recombinant phage ELISA against several proteins
T2 construct: purchased Genetex Inc. (Irvine)
Procedure: as §1

STAT3 = biological target: T3, STAT3 (Homo sapiens, UniProt P40763); test: Phage ELISA to STAT3 (clone screening and specificity); conditions: recombinant phage ELISA
T3 construct: endogenous in cells; host or cells: DU145
Procedure: XL1-BLUE cells were transformed with phages recovered from the 4th biopanning step having the highest ratio of output phage to input phage, and spread in plate to produce 100-200 of plaques. Using a sterile tip, 60 plaques were inoculated in 2 ml LB-ampicillin (50 μg/ml) media and cultured at 37° C. for 5 hr with vigorous shaking. The transformed cells were infected with Ex helper phages (5×10^9 pfu/ml; OD=0.8-1.0) and cultured at 37° C. for 1 hr with shaking at 200 rpm. After removing the supernatant by centrifuging at 1,000×g for 10 min, the precipitated cells were resuspended in 1 ml LB liquid media supplemented with 50 μg/ml ampicillin and 25 μg/ml kanamycin, and cultured at 30° C. overnight with shaking at 200 rpm. The supernatant was collected by centrifuging at 10,000×g for 20 min at 4° C. and mixed with 2% skim milk, which is used in detection of phage peptides.
STAT3 (10 μg/ml), BSA (10 μg/ml) and streptavidin (10 μg/ml) each was added to 30 wells (50 μl per well) in a 96-well ELISA plate and then kept to stand at 4° C. overnight. Next day, all wells were washed with 0.1% PBST three times, and blocked at room temperature for 2 hrs using 2% skim milk diluted with PBS. Then, the solution was removed and the plate was washed with 0.1% PBST three times. […] The absorbance was measured at 450 nm to select phages which had the absorbance above 20-fold higher than BSA. […]

VCAM1 = biological target: T4, VCAM1 (Homo sapiens, UniProt P19320); test: Recombinant phage ELISA specificity to VCAM1; conditions: recombinant phage ELISA against several proteins
T4 construct: made in house; host or cells: E. coli AD494 (pET32a)
T4 sequence (P19320 25-739): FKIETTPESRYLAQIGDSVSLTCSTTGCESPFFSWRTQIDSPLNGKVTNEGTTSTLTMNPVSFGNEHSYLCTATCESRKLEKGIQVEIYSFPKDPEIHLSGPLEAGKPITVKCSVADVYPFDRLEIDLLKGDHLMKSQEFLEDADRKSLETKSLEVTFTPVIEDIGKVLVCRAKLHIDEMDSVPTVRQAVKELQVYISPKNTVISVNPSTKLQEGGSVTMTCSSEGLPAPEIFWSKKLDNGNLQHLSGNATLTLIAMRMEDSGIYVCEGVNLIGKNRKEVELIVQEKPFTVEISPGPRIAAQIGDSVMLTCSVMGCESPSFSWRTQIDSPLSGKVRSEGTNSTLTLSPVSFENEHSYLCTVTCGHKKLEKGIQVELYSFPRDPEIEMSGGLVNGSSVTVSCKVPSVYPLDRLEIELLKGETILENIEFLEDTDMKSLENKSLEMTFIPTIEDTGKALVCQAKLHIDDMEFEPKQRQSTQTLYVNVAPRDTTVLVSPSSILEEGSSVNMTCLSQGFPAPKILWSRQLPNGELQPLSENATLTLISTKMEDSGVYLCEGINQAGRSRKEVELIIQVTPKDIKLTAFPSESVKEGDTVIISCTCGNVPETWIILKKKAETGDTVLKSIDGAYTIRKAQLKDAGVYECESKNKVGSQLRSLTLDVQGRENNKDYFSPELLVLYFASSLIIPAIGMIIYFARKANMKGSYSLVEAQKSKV
Procedure: as §1

MyD88 = biological target: T5, MyD88 (Homo sapiens, UniProt Q99836); test: Recombinant phage ELISA specificity to MyD88; conditions: recombinant phage ELISA against several proteins
T5 construct: purchased Santa Cruz Biotechnology sc-4540 WB
Procedure: as §1
The MyD88-specific bipodal-peptide binders were analyzed to have target specificity to MyD88 by the ELISA (FIG. 6f).

VEGF = biological target: T6, VEGF (Homo sapiens, UniProt P15692); test: Recombinant phage ELISA specificity to VEGF; conditions: recombinant phage ELISA against several proteins
T6 construct: Trx (thioredoxin, pET32a) (N, cleaved yes); made in house; host or cells: E. coli AD494 (pET32a)
T6 sequence (P15692 27-147 isoform P15692-9 limits assumed): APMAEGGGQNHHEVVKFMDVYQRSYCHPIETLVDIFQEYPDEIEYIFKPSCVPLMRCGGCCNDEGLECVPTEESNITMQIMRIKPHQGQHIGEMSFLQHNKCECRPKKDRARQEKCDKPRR
Procedure: as §1

[1] = biological target: T7, nAchR (Nicotinic acetylcholine receptor) (Mus musculus, UniProt P04756); test: SPR (Biacore) affinity to nAchR peptide fragment
T7 construct: Biotin-[…]; (32 mer), a peptide fragment of nAchR; purchased Anigen Inc. (Korea, Kwangju), custom synthesis
Procedure: Affinity was measured using BIAcore X instrument (Biacore AB, Uppsala, Sweden). ED-B and nAchR were immobilized on streptavidin (SA) chip (Biacore) by injecting 2,000 RU biotinylated-EDB. VEGF was immobilized on CM5 chip (Biacore) using EDC/NHS. PBS (pH 7.4) was used as a running buffer.

nAchR = biological target: T8, nAchR (Mus musculus, UniProt P04756); test: Recombinant phage ELISA specificity to nAchR; conditions: recombinant phage ELISA against several proteins
T8 construct: Biotin-[…]; (32 mer), a peptide fragment of nAchR; purchased Anigen Inc. (Korea, Kwangju), custom synthesis
Procedure: as §1

T3 sequence (P40763 whole entry, species assumed): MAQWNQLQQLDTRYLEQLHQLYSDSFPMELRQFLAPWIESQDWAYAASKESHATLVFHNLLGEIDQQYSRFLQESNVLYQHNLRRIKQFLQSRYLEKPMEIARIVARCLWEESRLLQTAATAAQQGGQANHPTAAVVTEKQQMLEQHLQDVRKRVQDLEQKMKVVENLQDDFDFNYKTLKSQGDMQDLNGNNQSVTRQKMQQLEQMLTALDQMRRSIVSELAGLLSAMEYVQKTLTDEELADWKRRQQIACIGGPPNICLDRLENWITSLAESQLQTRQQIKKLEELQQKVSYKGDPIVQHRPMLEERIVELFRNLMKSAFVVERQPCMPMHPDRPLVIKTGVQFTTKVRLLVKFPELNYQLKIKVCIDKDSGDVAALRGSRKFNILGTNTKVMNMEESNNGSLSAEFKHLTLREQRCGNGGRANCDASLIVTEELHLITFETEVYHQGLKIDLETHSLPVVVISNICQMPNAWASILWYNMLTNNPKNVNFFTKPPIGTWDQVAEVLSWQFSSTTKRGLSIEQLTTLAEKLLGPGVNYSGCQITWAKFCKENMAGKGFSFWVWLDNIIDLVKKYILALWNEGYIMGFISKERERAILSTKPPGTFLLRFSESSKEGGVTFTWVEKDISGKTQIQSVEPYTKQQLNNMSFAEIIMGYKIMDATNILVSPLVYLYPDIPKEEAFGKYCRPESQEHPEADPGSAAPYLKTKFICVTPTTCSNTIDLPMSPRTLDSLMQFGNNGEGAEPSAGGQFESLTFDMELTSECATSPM
T8 sequence (P04756 193-224 limits assumed): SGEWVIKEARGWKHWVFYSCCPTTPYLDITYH
T7 sequence (P04756 193-224 limits assumed): as above
T5 sequence (Q99836 whole entry): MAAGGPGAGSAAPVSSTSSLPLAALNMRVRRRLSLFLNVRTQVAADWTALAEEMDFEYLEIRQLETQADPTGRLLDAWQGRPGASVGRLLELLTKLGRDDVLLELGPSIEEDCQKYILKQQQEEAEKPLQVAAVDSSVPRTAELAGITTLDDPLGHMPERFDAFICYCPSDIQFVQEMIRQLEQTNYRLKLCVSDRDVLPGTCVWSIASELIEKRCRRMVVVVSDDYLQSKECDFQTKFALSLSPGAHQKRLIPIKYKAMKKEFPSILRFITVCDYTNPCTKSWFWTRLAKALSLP
T2 sequence (P02768 25-609): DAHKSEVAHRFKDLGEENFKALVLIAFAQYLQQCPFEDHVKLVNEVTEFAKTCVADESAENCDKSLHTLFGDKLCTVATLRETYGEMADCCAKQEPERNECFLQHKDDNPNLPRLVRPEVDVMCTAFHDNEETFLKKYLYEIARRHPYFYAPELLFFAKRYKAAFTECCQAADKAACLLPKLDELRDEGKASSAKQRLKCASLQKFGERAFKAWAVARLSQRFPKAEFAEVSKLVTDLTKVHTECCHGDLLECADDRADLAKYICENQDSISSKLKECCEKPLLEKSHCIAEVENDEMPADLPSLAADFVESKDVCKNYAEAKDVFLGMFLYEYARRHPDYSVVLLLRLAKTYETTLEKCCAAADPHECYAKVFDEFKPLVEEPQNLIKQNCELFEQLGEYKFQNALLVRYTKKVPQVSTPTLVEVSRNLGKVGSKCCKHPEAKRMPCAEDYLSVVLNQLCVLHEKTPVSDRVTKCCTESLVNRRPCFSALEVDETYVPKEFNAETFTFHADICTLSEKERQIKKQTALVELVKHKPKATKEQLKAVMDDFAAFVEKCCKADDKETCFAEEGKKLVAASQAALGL
T1 sequence (P02751 1271-1359 limits assumed): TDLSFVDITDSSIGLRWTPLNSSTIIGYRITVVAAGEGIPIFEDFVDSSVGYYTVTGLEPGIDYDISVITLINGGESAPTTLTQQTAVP

Compound: HCSSAVGSWTWENGKWTWKGIIRLEQ [2 (Table 3a)]
- absorbance for ED-B higher than that of other proteins (fibronectin ED-B): above 30 fold

Compound: AASPYKGSWTWENGKWTWKGGWRMKM [Peptide 1 (Table 3e)]
- specificity for HSA (HSA): has specificity

Compound: QAYYIPGSWTWENGKWTWKGLWGPEF [Peptide 1 (STAT3), QAYYIP GSWTWENGKWTWKG LWGPEF]
- specificity to STAT3 compared to other proteins (STAT3): specificity to STAT3

Compound: CC[C@H](C)[C@H](NC(=O)[C@@H]1CCCN1C(=O)[C@H](CS)NC(=O)[C@@H](NC(=O)[C@H](CO)NC(=O)[C@@H]1CCCN1C(=O)CNC(=O)[C@H](CCCCN)NC(=O)[C@H](Cc1c[nH]c2ccccc12)NC(=O)[C@@H](NC(=O)[C@H](Cc1c[nH]c2ccccc12)NC(=O)[C@H](CCCCN)NC(=O)CNC(=O)[C@H](CC(N)=O)NC(=O)[C@H](CCC(=O)O)NC(=O)[C@H](Cc1c[nH]c2ccccc12)NC(=O)[C@@H](NC(=O)[C@H](Cc1c[nH]c2ccccc12)NC(=O)[C@H](CO)NC(=O)CNC(=O)[C@@H](NC(=O)[C@H](CS)NC(=O)[C@H](CC(=O)O)NC(=O)[C@H](CCCNC(=N)N)NC(=O)[C@H](C)NC(=O)[C@@H](N)CCC(N)=O)[C@@H](C)O)[C@@H](C)O)[C@@H](C)O)[C@@H](C)CC)C(=O)O [Peptide 1 (Table 3c)] (H-QARDCTGSWTWENGKWTWKGPSICPI-OH; N-terminus and C-terminus assumed)
- specificity for VCAM1 (VCAM1): has specificity

Compound: HSHAFYGSWTWENGKWTWKGNPGWWT [Peptide 1 (Table 3f)]
- specificity for MyD88 (MyD88): has specificity

Compound: HANFFQGSWTWENGKWTWKGWKYNQS [Peptide 1 (Table 3b)]
- specificity for VEGF (VEGF): has specificity

Compound: HGFQWP GSWTWENGKWTWKG AYQFLK (GSWTWENGKWTWKGAYQFLK) [Peptide 2 (STAT3)]
- specificity to STAT3 compared to other proteins (STAT3): specificity to STAT3

Compound: EASFWLGSWTWENGKWTWKGKGTLNR [Peptide 1 (Table 3d)]
- Kd [1]: 73 nM
- specificity for nAchR (nAchR): has specificity
